Source: patent US20110105509A1 (Wyeth, LLC, priority 2009, published 2011)

Biological target: T1, CRTH2 (Homo sapiens, UniProt Q9Y5Y4)
T1 construct: expressed in transfected cells; host or cells: CHO cells
T1 sequence (Q9Y5Y4 1-395): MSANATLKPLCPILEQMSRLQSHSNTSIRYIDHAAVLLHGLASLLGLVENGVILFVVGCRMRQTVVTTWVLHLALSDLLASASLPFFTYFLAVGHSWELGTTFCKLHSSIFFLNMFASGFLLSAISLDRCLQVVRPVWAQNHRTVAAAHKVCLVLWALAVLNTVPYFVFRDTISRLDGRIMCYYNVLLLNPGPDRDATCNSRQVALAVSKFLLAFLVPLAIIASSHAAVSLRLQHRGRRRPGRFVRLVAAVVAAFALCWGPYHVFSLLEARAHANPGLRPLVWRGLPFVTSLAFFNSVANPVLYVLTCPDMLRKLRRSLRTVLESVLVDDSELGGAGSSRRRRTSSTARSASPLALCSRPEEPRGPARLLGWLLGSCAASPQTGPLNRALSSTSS
Assay: FRET based competitive immunoassay (cAMP) in CRTH2 expressing CHO cells
Format: cell-based
Details: CRTH2 expressing CHO cells incubated with forskolin and PGD2; Eu3+ cryptate-labeled anti-cAMP and d2-labeled cAMP
Experimental: FRET Assay: To evaluate potency compounds were tested in a FRET based competitive immunoassay in which CRTH2 expressing CHO cells were incubated in the presence of forskolin and PGD2 along with Eu3+ cryptate-labeled anti-cAMP and d2-labeled cAMP.

Structure (SMILES)	IC50
Cc1c(-c2nn(Cc3cccc(C(F)(F)F)c3)c(=O)c3ccccc23)c2cc(Cl)ccc2n1CC(=O)O [Example 200, 2-(5-Chloro-2-methyl-3-(4-oxo-3-(3-(trifluoromethyl)benzyl)-3,4-dihydro-phthalazin-1-yl)-1H-indol-1-yl)acetic acid]	45 nM
Cc1c(Cc2ccc(=O)n(CC(O)(C(F)(F)F)C(F)(F)F)n2)c2cc(F)ccc2n1CC(=O)O [Example 201, [5-fluoro-2-methyl-3-({6-oxo-1-[3,3,3-trifluoro-2-hydroxy-2-(trifluoromethyl)-propyl]-1,6-dihydro-pyridazin-3-yl}methyl)-1H-indol-1-yl]acetic acid]	22 nM
Cc1c(-c2nn(-c3ccc(C(F)(F)F)cc3)c(=O)c3ccccc23)c2cc(F)ccc2n1CC(=O)O [Example 206, 2-(5-fluoro-2-methyl-3-(4-oxo-3-(4-(trifluoromethyl)phenyl)-3,4-dihydrophthalazin-1-yl)-1H-indol-1-yl)acetic acid]	320 nM
Cc1c(-c2nn(-c3cccc(C(F)(F)F)c3)c(=O)c3ccccc23)c2cc(F)ccc2n1CC(=O)O [Example 207, 2-(5-fluoro-2-methyl-3-(4-oxo-3-(3-(trifluoromethyl)phenyl)-3,4-dihydrophthalazin-1-yl)-1H-indol-1-yl)acetic acid]	588 nM
Cc1c(-c2nn(Cc3nc4cc(Cl)ccc4s3)c(=O)c3ccccc23)c2cc(F)ccc2n1CC(=O)O [Example 208, 2-(3-(3-((5-chlorobenzo[d]thiazol-2-yl)methyl)-4-oxo-3,4-dihydrophthalazin-1-yl)-5-fluoro-2-methyl-1H-indol-1-yl)acetic acid]	3 nM
Cc1c(-c2nn(Cc3nc4cc(Cl)ccc4s3)c(=O)c3ccccc23)c2cc(Cl)ccc2n1CC(=O)O [Example 209, 2-(5-chloro-3-(3-((5-chlorobenzo[d]thiazol-2-yl)methyl)-4-oxo-3,4-dihydro-phthalazin-1-yl)-2-methyl-1H-indol-1-yl)acetic acid]	14 nM
Cc1c(-c2ccc(=O)n(Cc3ccccc3C(F)(F)F)n2)c2cc(Cl)ccc2n1CC(=O)O [Example 211, 2-(5-chloro-2-methyl-3-(6-oxo-1-(2-(trifluoromethyl)benzyl)-1,6-dihydro-pyridazin-3-yl)-1H-indol-1-yl)acetic acid]	22 nM
Cc1c(-c2ccc(=O)n(Cc3cccc(C(F)(F)F)c3)n2)c2cc(Cl)ccc2n1CC(=O)O [Example 212, 2-(5-chloro-2-methyl-3-(6-oxo-1-(3-(trifluoromethyl)benzyl)-1,6-dihydropyridazin-3-yl)-1H-indol-1-yl)acetic acid]	33 nM
Cc1c(-c2ccc(=O)n(Cc3ccc(C(F)(F)F)cc3)n2)c2cc(Cl)ccc2n1CC(=O)O [Example 213, 2-(5-chloro-2-methyl-3-(6-oxo-1-(4-(trifluoromethyl)benzyl)-1,6-dihydropyridazin-3-yl)-1H-indol-1-yl)acetic acid]	19 nM
Cc1c(-c2ccc(=O)n(Cc3ccccc3)n2)c2cc(S(C)(=O)=O)ccc2n1CC(=O)O [Example 214, 2-(3-(1-benzyl-6-oxo-1,6-dihydropyridazin-3-yl)-2-methyl-5-(methylsulfonyl)-1H-indol-1-yl)acetic acid]	351 nM
Cc1c(-c2ccc(=O)n(Cc3ccccc3C(F)(F)F)n2)c2cc(F)ccc2n1CC(=O)O [Example 216, 2-(5-fluoro-2-methyl-3-(6-oxo-1-(2-(trifluoromethyl)benzyl)-1,6-dihydropyridazin-3-yl)-1H-indol-1-yl)acetic acid]	14 nM
Cc1c(-c2ccc(=O)n(Cc3cccc(C(F)(F)F)c3)n2)c2cc(F)ccc2n1CC(=O)O [Example 218, 2-(5-fluoro-2-methyl-3-(6-oxo-1-(3-(trifluoromethyl)benzyl)-1,6-dihydropyridazin-3-yl)-1H-indol-1-yl)acetic acid]	24 nM
Cc1c(-c2ccc(=O)n(Cc3ccccc3)n2)c2cc(Br)ccc2n1CC(=O)O [Example 219, 2-(3-(1-benzyl-6-oxo-1,6-dihydropyridazin-3-yl)-5-bromo-2-methyl-1H-indol-1-yl)-acetic acid]	30 nM
Cc1c(-c2ccc(=O)n(CCc3ccccc3)n2)c2ccccc2n1CC(=O)O [Example 228, 2-(2-methyl-3-(6-oxo-1-phenethyl-1,6-dihydropyridazin-3-yl)-1H-indol-1-yl)acetic acid]	147 nM
Cc1c(-c2ccc(=O)n(CCc3ccc(F)cc3)n2)c2ccccc2n1CC(=O)O [Example 229, 2-(3-(1-(4-fluorophenethyl)-6-oxo-1,6-dihydropyridazin-3-yl)-2-methyl-1H-indol-1-yl)acetic acid]	136 nM
Cc1c(-c2ccc(=O)n(CC(C)(C)Oc3ccccc3)n2)c2cc(F)ccc2n1CC(=O)O [Example 230, 2-(5-fluoro-2-methyl-3-(1-(2-methyl-2-phenoxypropyl)-6-oxo-1,6-dihydropyridazin-3-yl)-1H-indol-1-yl)acetic acid]	232 nM

Continued, values first:

IC50	Structure (SMILES)
19 nM	Cc1c(-c2nn(Cc3ccccc3C(F)(F)F)c(=O)c3ccccc23)c2cc(Cl)ccc2n1CC(=O)O [Example 199, 2-(5-chloro-2-methyl-3-(4-oxo-3-(2-(trifluoromethyl)benzyl)-3,4-dihydrophthalazin-1-yl)-1H-indol-1-yl)acetic acid]
9 nM	Cc1c(-c2nn(Cc3ccccc3C(F)(F)F)c(=O)c3ccccc23)c2cc(F)ccc2n1CC(=O)O [Example 202, 2-(5-fluoro-2-methyl-3-(4-oxo-3-(2-(trifluoromethyl)benzyl)-3,4-dihydrophthalazin-1-yl)-1H-indol-1-yl)acetic acid]
10 nM	Cc1c(-c2nn(Cc3cccc(C(F)(F)F)c3)c(=O)c3ccccc23)c2cc(F)ccc2n1CC(=O)O [Example 203, 2-(5-fluoro-2-methyl-3-(4-oxo-3-(3-(trifluoromethyl)benzyl)-3,4-dihydro-phthalazin-1-yl)-1H-indol-1-yl)acetic acid]
10 nM	Cc1c(-c2nn(Cc3ccc(C(F)(F)F)cc3)c(=O)c3ccccc23)c2cc(F)ccc2n1CC(=O)O [Example 204, 2-(5-fluoro-2-methyl-3-(4-oxo-3-(4-(trifluoromethyl)benzyl)-3,4-dihydrophthalazin-1-yl)-1H-indol-1-yl)acetic acid]
60 nM	Cc1c(-c2nn(-c3ccccc3)c(=O)c3ccccc23)c2cc(F)ccc2n1CC(=O)O [Example 205, 2-(5-fluoro-2-methyl-3-(4-oxo-3-phenyl-3,4-dihydrophthalazin-1-yl)-1H-indol-1-yl)-acetic acid]
2 nM	Cc1c(-c2nn(CCOc3ccc(Cl)cc3)c(=O)c3ccccc23)c2cc(F)ccc2n1CC(=O)O [Example 210, 2-(3-(3-(2-(4-chlorophenoxy)ethyl)-4-oxo-3,4-dihydrophthalazin-1-yl)-5-fluoro-2-methyl-1H-indol-1-yl)acetic acid]
27 nM	Cc1c(-c2nn(Cc3ccccc3)c(=O)c3ccccc23)c2cc(S(C)(=O)=O)ccc2n1CC(=O)O [Example 215, 2-(3-(3-benzyl-4-oxo-3,4-dihydrophthalazin-1-yl)-2-methyl-5-(methylsulfonyl)-1H-indol-1-yl)acetic acid]
18 nM	Cc1c(-c2nn(CC(C)(C)Oc3ccccc3)c(=O)c3ccccc23)c2cc(F)ccc2n1CC(=O)O [Example 220, 2-(5-fluoro-2-methyl-3-(3-(2-methyl-2-phenoxypropyl)-4-oxo-3,4-dihydrophthalazin-1-yl)-1H-indol-1-yl)acetic acid]
6 nM	Cc1c(-c2nn(CCOc3ccccc3)c(=O)c3ccccc23)c2cc(Cl)ccc2n1CC(=O)O [Example 221, 2-(5-chloro-2-methyl-3-(4-oxo-3-(2-phenoxyethyl)-3,4-dihydrophthalazin-1-yl)-1H-indol-1-yl)acetic acid]
1 nM	Cc1c(-c2nn(CCOc3ccccc3)c(=O)c3ccccc23)c2cc(F)ccc2n1CC(=O)O [Example 222, 2-(5-fluoro-2-methyl-3-(4-oxo-3-(2-phenoxyethyl)-3,4-dihydrophthalazin-1-yl)-1H-indol-1-yl)acetic acid]
6 nM	Cc1c(-c2nn(CCOc3ccccc3)c(=O)c3ccccc23)c2ccccc2n1CC(=O)O [Example 223, 2-(2-methyl-3-(4-oxo-3-(2-phenoxyethyl)-3,4-dihydrophthalazin-1-yl)-1H-indol-1-yl)acetic acid]
93 nM	Cc1c(-c2nn(CCc3ccc(F)cc3)c(=O)c3ccccc23)c2ccccc2n1CC(=O)O [Example 224, 2-(3-(3-(4-fluorophenethyl)-4-oxo-3,4-dihydrophthalazin-1-yl)-2-methyl-1H-indol-1-yl)acetic acid]
27 nM	Cc1c(-c2nn(CCc3ccccc3)c(=O)c3ccccc23)c2ccccc2n1CC(=O)O [Example 225, 2-(2-methyl-3-(4-oxo-3-phenethyl-3,4-dihydrophthalazin-1-yl)-1H-indol-1-yl)acetic acid]
2 nM	Cc1c(-c2nn(CCc3ccccc3)c(=O)c3ccccc23)c2cc(F)ccc2n1CC(=O)O [Example 226, 2-(5-fluoro-2-methyl-3-(4-oxo-3-phenethyl-3,4-dihydrophthalazin-1-yl)-1H-indol-1-yl)acetic acid]
3 nM	Cc1c(-c2nn(CCc3ccc(F)cc3)c(=O)c3ccccc23)c2cc(F)ccc2n1CC(=O)O [Example 227, 2-(5-fluoro-3-(3-(4-fluorophenethyl)-4-oxo-3,4-dihydrophthalazin-1-yl)-2-methyl-1H-indol-1-yl)acetic acid]
